Converted amounts (≈) assume the structure as drawn.
What was measured:
Assay in all cases: ≥ marks a high value that may be exact or a test limit, other limits are often not marked, values filed in µg/mL are converted to µM
Pseudomonas aeruginosa = tested on: Pseudomonas aeruginosa
Bacillus subtilis = tested on: Bacillus subtilis
Micrococcus luteus = tested on: Micrococcus luteus
Klebsiella pneumoniae = tested on: Klebsiella pneumoniae
Escherichia coli = tested on: Escherichia coli
Proteus mirabilis = tested on: Proteus mirabilis
Staphylococcus aureus = tested on: Staphylococcus aureus
Shigella dysenteriae = tested on: Shigella dysenteriae
[1] = tested on: Staphylococcus epidermidis
Salmonella typhimurium = tested on: Salmonella typhimurium
Escherichia coli JW0013 = tested on: Escherichia coli JW0013
[2] = tested on: Micrococcus luteus ATCC 9341
[3] = tested on: Klebsiella pneumoniae ATCC 10031
[4] = tested on: Escherichia coli DH5alpha
[5] = tested on: Salmonella enterica subsp. enterica serovar Typhimurium ATCC 14028
[6] = tested on: Escherichia coli ATCC 25922
[7] = tested on: Bacillus subtilis ATCC 6051
[8] = tested on: Staphylococcus aureus ATCC 25923
[9] = tested on: Pseudomonas aeruginosa ATCC 27853

`CC(C)C[C@H](NC(=O)[C@H](C)NC(=O)CNC(=O)[C@H](CC(C)C)NC(=O)[C@@H](N)Cc1ccccc1)C(=O)N[C@@H](Cc1ccccc1)C(=O)N[C@@H](CCCCN)C(=O)N[C@H](C(=O)N[C@@H](C)C(=O)N[C@@H](CO)C(=O)N[C@@H](Cc1c[nH]c2ccccc12)C(=O)O)C(C)C` [FLGALFKVASW] showed an MIC (Pseudomonas aeruginosa) of over 161 µM, an MIC (Bacillus subtilis) of at least 161 µM and an MIC (Micrococcus luteus) of at least 161 µM. It also gave an MIC (Klebsiella pneumoniae) of over 161 µM, an MIC (Escherichia coli) of over 161 µM and an MIC (Proteus mirabilis) of at least 161 µM. The MIC (Staphylococcus aureus) was over 161 µM, the MIC (Shigella dysenteriae) was at least 161 µM and the MIC [1] was at least 161 µM. For the same molecule, the MIC (Salmonella typhimurium) was at least 161 µM.

Molecule `CC[C@H](C)[C@H](NC(=O)[C@H](CCCN=C(N)N)NC(=O)[C@H](CCCN=C(N)N)NC(=O)[C@@H]1CCCN1C(=O)[C@@H]1CCCN1C(=O)[C@H](CCCN=C(N)N)NC(=O)[C@H](CCCN=C(N)N)NC(=O)[C@H](CCCN=C(N)N)NC(=O)[C@@H]1CCCN1C(=O)[C@H](CC(C)C)NC(=O)[C@H](Cc1ccc(O)cc1)NC(=O)[C@@H]1CCCN1C(=O)[C@H](CCCCN)NC(=O)[C@H](CCCCN)NC(=O)[C@H](CC(=O)O)NC(=O)[C@@H](N)C(C)C)C(=O)N[C@@H](Cc1ccc(O)cc1)C(=O)N[C@@H](CC(N)=O)C(=O)N[C@@H](CCCN=C(N)N)C(N)=O` [VDKKPYLPRRRPPRRIYNR] has an MIC (Escherichia coli JW0013) of 0.685 µM (≈ 1.7 µg/mL).

Work on `CC[C@H](C)[C@H](NC(=O)[C@H](CCCN=C(N)N)NC(=O)[C@H](CCCN=C(N)N)NC(=O)[C@@H]1CCCN1C(=O)[C@@H]1CCCN1C(=O)[C@H](CCCN=C(N)N)NC(=O)[C@H](CCCCN)NC(=O)[C@H](CCCN=C(N)N)NC(=O)[C@@H]1CCCN1C(=O)[C@H](CCCCN)NC(=O)[C@H](Cc1ccc(O)cc1)NC(=O)[C@@H]1CCCN1C(=O)[C@H](CCCCN)NC(=O)[C@H](CCCCN)NC(=O)[C@H](CC(=O)O)NC(=O)[C@@H](N)C(C)C)C(=O)N[C@@H](Cc1ccc(O)cc1)C(=O)N[C@@H](CC(N)=O)C(=O)N[C@@H](CCCN=C(N)N)C(N)=O` [VDKKPYKPRKRPPRRIYNR] yielded an MIC (Escherichia coli JW0013) of 0.973 µM (≈ 2.4 µg/mL).

In the case of `CC(C)C[C@H](NC(=O)[C@H](C)N)C(=O)N1CCC[C@H]1C(=O)N[C@@H](Cc1c[nH]c2ccccc12)C(=O)N[C@@H](CCCCN)C(=O)N[C@@H](Cc1c[nH]c2ccccc12)C(=O)N1CCC[C@H]1C(=O)N[C@@H](Cc1c[nH]c2ccccc12)C(=O)N[C@@H](Cc1c[nH]c2ccccc12)C(=O)N1CCC[C@H]1C(=O)N[C@@H](Cc1c[nH]c2ccccc12)C(=O)N[C@@H](CCCN=C(N)N)C(=O)N[C@@H](CCCN=C(N)N)C(N)=O` [ALPWKWPWWPWRR], the MIC [2] is reported as 0.4 µM (≈ 0.746 µg/mL).

`CC(C)C[C@H](NC(=O)CNC(=O)[C@H](C)NC(=O)[C@H](CC(C)C)NC(=O)[C@H](CC(C)C)NC(=O)[C@H](CCCCN)NC(=O)[C@H](CC(C)C)NC(=O)[C@@H](N)Cc1ccccc1)C(=O)N[C@@H](CC(C)C)C(=O)N[C@@H](CCCCN)C(=O)N[C@@H](CC(N)=O)C(=O)N[C@@H](Cc1ccccc1)C(=O)N[C@@H](C)C(=O)O` [FLKLLAGLLKNFA] gave an MIC [3] of at least 34.5 µM, an MIC [4] of at least 69.1 µM and an MIC [5] of over 69.1 µM.

In the case of `CC[C@H](C)[C@H](NC(=O)[C@H](CCCN=C(N)N)NC(=O)[C@H](CCCN=C(N)N)NC(=O)[C@@H]1CCCN1C(=O)[C@@H]1CCCN1C(=O)[C@H](CCCN=C(N)N)NC(=O)[C@@H]1CCCN1C(=O)[C@H](CCCN=C(N)N)NC(=O)[C@@H]1CCCN1C(=O)[C@H](CC(C)C)NC(=O)[C@H](Cc1ccc(O)cc1)NC(=O)[C@H](Cc1cnc[nH]1)NC(=O)[C@H](CCCCN)NC(=O)[C@H](CCCCN)NC(=O)[C@H](CC(=O)O)NC(=O)[C@@H](N)C(C)C)C(=O)N[C@@H](Cc1ccc(O)cc1)C(=O)N[C@@H](CC(N)=O)C(=O)N[C@@H](CCCN=C(N)N)C(N)=O` [VDKKHYLPRPRPPRRIYNR], the MIC (Escherichia coli JW0013) is reported as 0.975 µM (≈ 2.4 µg/mL).

`CC[C@H](C)[C@H](N)C(=O)N[C@@H](CC(C)C)C(=O)N1CCC[C@H]1C(=O)N[C@@H](Cc1c[nH]c2ccccc12)C(=O)N[C@@H](CCCCN)C(=O)N[C@@H](Cc1c[nH]c2ccccc12)C(=O)N1CCC[C@H]1C(=O)N[C@@H](Cc1c[nH]c2ccccc12)C(=O)N[C@@H](Cc1c[nH]c2ccccc12)C(=O)N1CCC[C@H]1C(=O)N[C@@H](Cc1c[nH]c2ccccc12)C(=O)N[C@@H](CCCCN)C(=O)N[C@@H](CCCCN)C(N)=O` [ILPWKWPWWPWKK] was tested, and the MIC [6] was 16 µM (≈ 29.6 µg/mL) and the MIC [2] was 0.4 µM (≈ 0.74 µg/mL).

`CC[C@H](C)[C@H](NC(=O)[C@H](CC(N)=O)NC(=O)[C@H](Cc1ccccc1)NC(=O)[C@H](CC(C)C)NC(=O)CN)C(=O)N[C@H](C(=O)N[C@@H](CCCCN)C(=O)N[C@@H](CCCCN)C(=O)N[C@H](C(=O)N[C@H](C(=O)NCC(=O)N[C@@H](CCCCN)C(=O)N[C@@H](CC(C)C)C(=O)N[C@@H](CCCN=C(N)N)C(=O)O)[C@@H](C)CC)[C@@H](C)O)[C@@H](C)CC` [GLFNIIKKTIGKLR] was tested, and the MIC [7] was at least 40 µM, the MIC [6] was 40 µM (≈ 64 µg/mL) and the MIC [8] was 160 µM (≈ 256 µg/mL). The MIC [9] was 20 µM (≈ 32 µg/mL).

Source: DBAASP
